{
  "source": "paper PMC6979384",
  "about": "“Characterization of the plant homeodomain (PHD) reader family for their histone tail interactions” (Epigenetics & Chromatin, 2020)",
  "experiment_in_all_cases": "Histone peptide microarray",
  "assay_type_in_all_cases": "binding, human",
  "settings_in_all_cases": "arrays performed twice, n of 4",
  "key": {"AIRE (PP)": {"system": "AIRE (PP)", "outline": "(§1)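 Using an optimized microarray protocol, purified GST-tagged PHD fingers were incubated at 0.5 μM on 293 histone peptides with single or multiple modifications, and array signal was recorded as the average of 4 replicates.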"}, "BAZ2B": {"system": "BAZ2B", "outline": "as §1"}, "BPTF (PB)": {"system": "BPTF (PB)", "outline": "as §1"}, "CHD4 (PPCC)": {"system": "CHD4 (PPCC)", "outline": "as §1"}, "CHD5 (PCC)": {"system": "CHD5 (PCC)", "outline": "as §1"}, "CHD5 (PPCC)": {"system": "CHD5 (PPCC)", "outline": "as §1"}, "DIDO1": {"system": "DIDO1", "outline": "as §1"}, "DPF2 (PPC2W2)": {"system": "DPF2 (PPC2W2)", "outline": "as §1"}, "ING1": {"system": "ING1", "outline": "as §1"}, "ING2": {"system": "ING2", "outline": "as §1"}, "ING3": {"system": "ING3", "outline": "as §1"}, "ING4": {"system": "ING4", "outline": "as §1"}, "ING5": {"system": "ING5", "outline": "as §1"}, "KDM4C (TTP)": {"system": "KDM4C (TTP)", "outline": "as §1"}, "KDM5A (1)": {"system": "KDM5A (1)", "outline": "as §1"}, "KDM5A (3)": {"system": "KDM5A (3)", "outline": "as §1"}, "KDM5B (1)": {"system": "KDM5B (1)", "outline": "as §1"}, "KDM5B (3)": {"system": "KDM5B (3)", "outline": "as §1"}, "KDM7A": {"system": "KDM7A", "outline": "as §1"}, "MLL5": {"system": "MLL5", "outline": "as §1"}, "MORC3 (CW)": {"system": "MORC3 (CW)", "outline": "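GST-tagged PHD finger readers were expressed, purified and applied at 0.5 μM to a microarray of 293 synthetic histone peptides carrying single or combinatorial PTMs, using an optimized protocol. Binding signals are averages with standard deviation from 4 replicates.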"}, "PHF13": {"system": "PHF13", "outline": "as §1"}, "PHF21A": {"system": "PHF21A", "outline": "as §1"}, "PHF23": {"system": "PHF23", "outline": "as §1"}, "PHF2": {"system": "PHF2", "outline": "as §1"}, "PHF8": {"system": "PHF8", "outline": "as §1"}, "PHRF1 (RP)": {"system": "PHRF1 (RP)", "outline": "as §1"}, "RAG2": {"system": "RAG2", "outline": "as §1"}, "SP140L": {"system": "SP140L", "outline": "as §1"}, "TAF3": {"system": "TAF3", "outline": "as §1"}, "TRIM66 (PB)": {"system": "TRIM66 (PB)", "outline": "as §1"}, "[1]": {"settings": "histone peptide array, GST-tagged reader"}, "[2]": {"settings": "histone peptide array, GST-tagged reader, PB = PHD + Bromodomain"}, "[3]": {"settings": "histone peptide array, GST-tagged reader, PPCC = Dual PHD + Dual Chromodomain"}},
  "data": [
    {"substance": "H4K8but (1-23): H4 1-23", "values": [
      {"measurement": "Array Heatmap signal, AIRE (PP)", "setting": "AIRE (PP); [1]", "result": 0.5833},
      {"measurement": "Array Heatmap signal, BAZ2B", "setting": "BAZ2B; [1]", "result": 0.516},
      {"measurement": "Array Heatmap signal, BPTF (PB)", "setting": "BPTF (PB); [2]", "result": 0.3704},
      {"measurement": "Array Heatmap signal, CHD4 (PPCC)", "setting": "CHD4 (PPCC); [3]", "result": 0.5879},
      {"measurement": "Array Heatmap signal, CHD5 (PCC)", "setting": "CHD5 (PCC); histone peptide array, GST-tagged reader, PCC = PHD + Dual Chromodomain", "result": 0.8434},
      {"measurement": "Array Heatmap signal, CHD5 (PPCC)", "setting": "CHD5 (PPCC); [3]", "result": 0.6043},
      {"measurement": "Array Heatmap signal, DIDO1", "setting": "DIDO1; [1]", "result": 0.6187},
      {"measurement": "Array Heatmap signal, DPF2 (PPC2W2)", "setting": "DPF2 (PPC2W2); histone peptide array, GST-tagged reader, PPC2W2 = Dual PHD + C2W2-type Zn-finger", "result": 0.6771},
      {"measurement": "Array Heatmap signal, ING1", "setting": "ING1; [1]", "result": 0.5208},
      {"measurement": "Array Heatmap signal, ING2", "setting": "ING2; [1]", "result": 0.5968},
      {"measurement": "Array Heatmap signal, ING3", "setting": "ING3; [1]", "result": 0.4842},
      {"measurement": "Array Heatmap signal, ING4", "setting": "ING4; [1]", "result": 0.503},
      {"measurement": "Array Heatmap signal, ING5", "setting": "ING5; [1]", "result": 0.3969},
      {"measurement": "Array Heatmap signal, KDM4C (TTP)", "setting": "KDM4C (TTP); histone peptide array, GST-tagged reader, TTP = Tandem Tudor domain + PHD", "result": 0.554},
      {"measurement": "Array Heatmap signal, KDM5A (1)", "setting": "KDM5A (1); [1]", "result": 0.5298},
      {"measurement": "Array Heatmap signal, KDM5A (3)", "setting": "KDM5A (3); [1]", "result": 0.4217},
      {"measurement": "Array Heatmap signal, KDM5B (1)", "setting": "KDM5B (1); [1]", "result": 0.6708},
      {"measurement": "Array Heatmap signal, KDM5B (3)", "setting": "KDM5B (3); [1]", "result": 0.4914},
      {"measurement": "Array Heatmap signal, KDM7A", "setting": "KDM7A; [1]", "result": 0.4551},
      {"measurement": "Array Heatmap signal, MLL5", "setting": "MLL5; [1]", "result": 0.5606},
      {"measurement": "Array Heatmap signal, MORC3 (CW)", "setting": "MORC3 (CW); histone peptide array, GST-tagged reader, CW = CW-type Zn-finger", "result": 0.3738},
      {"measurement": "Array Heatmap signal, PHF13", "setting": "PHF13; [1]", "result": 0.6477},
      {"measurement": "Array Heatmap signal, PHF21A", "setting": "PHF21A; [1]", "result": 0.5096},
      {"measurement": "Array Heatmap signal, PHF23", "setting": "PHF23; [1]", "result": 0.5244},
      {"measurement": "Array Heatmap signal, PHF2", "setting": "PHF2; [1]", "result": 0.4448},
      {"measurement": "Array Heatmap signal, PHF8", "setting": "PHF8; [1]", "result": 0.3491},
      {"measurement": "Array Heatmap signal, PHRF1 (RP)", "setting": "PHRF1 (RP); [1]", "result": 0.4442},
      {"measurement": "Array Heatmap signal, RAG2", "setting": "RAG2; [1]", "result": 0.2428},
      {"measurement": "Array Heatmap signal, SP140L", "setting": "SP140L; [1]", "result": 0.3902},
      {"measurement": "Array Heatmap signal, TAF3", "setting": "TAF3; [1]", "result": 0.3164},
      {"measurement": "Array Heatmap signal, TRIM66 (PB)", "setting": "TRIM66 (PB); [2]", "result": 0.6276}
    ]},
    {"substance": "H4K8me1: H4 1-23 [Peptide H4K8me1]", "values": [
      {"measurement": "Array Heatmap value (peptide array binding signal)", "setting": "AIRE (PP); AIRE (PP), GST-tagged", "result": 0.4246},
      {"measurement": "Array Heatmap value (peptide array binding signal)", "setting": "BAZ2B; BAZ2B, GST-tagged", "result": 0.4726},
      {"measurement": "Array Heatmap value (peptide array binding signal)", "setting": "BPTF (PB); BPTF (PB), GST-tagged", "result": 0.3716},
      {"measurement": "Array Heatmap value (peptide array binding signal)", "setting": "CHD4 (PPCC); CHD4 (PPCC), GST-tagged", "result": 0.6125},
      {"measurement": "Array Heatmap value (peptide array binding signal)", "setting": "CHD5 (PCC); CHD5 (PCC), GST-tagged", "result": 0.8139},
      {"measurement": "Array Heatmap value (peptide array binding signal)", "setting": "CHD5 (PPCC); CHD5 (PPCC), GST-tagged", "result": 0.558},
      {"measurement": "Array Heatmap value (peptide array binding signal)", "setting": "DIDO1; DIDO1, GST-tagged", "result": 0.7218},
      {"measurement": "Array Heatmap value (peptide array binding signal)", "setting": "DPF2 (PPC2W2); DPF2 (PPC2W2), GST-tagged", "result": 0.7109},
      {"measurement": "Array Heatmap value (peptide array binding signal)", "setting": "ING1; ING1, GST-tagged", "result": 0.5733},
      {"measurement": "Array Heatmap value (peptide array binding signal)", "setting": "ING2; ING2, GST-tagged", "result": 0.5951},
      {"measurement": "Array Heatmap value (peptide array binding signal)", "setting": "ING3; ING3, GST-tagged", "result": 0.514},
      {"measurement": "Array Heatmap value (peptide array binding signal)", "setting": "ING4; ING4, GST-tagged", "result": 0.4749},
      {"measurement": "Array Heatmap value (peptide array binding signal)", "setting": "ING5; ING5, GST-tagged", "result": 0.3641},
      {"measurement": "Array Heatmap value (peptide array binding signal)", "setting": "KDM4C (TTP); KDM4C (TTP), GST-tagged", "result": 0.4883},
      {"measurement": "Array Heatmap value (peptide array binding signal)", "setting": "KDM5A (1); KDM5A (1), GST-tagged", "result": 0.445},
      {"measurement": "Array Heatmap value (peptide array binding signal)", "setting": "KDM5A (3); KDM5A (3), GST-tagged", "result": 0.4616},
      {"measurement": "Array Heatmap value (peptide array binding signal)", "setting": "KDM5B (1); KDM5B (1), GST-tagged", "result": 0.6396},
      {"measurement": "Array Heatmap value (peptide array binding signal)", "setting": "KDM5B (3); KDM5B (3), GST-tagged", "result": 0.4591},
      {"measurement": "Array Heatmap value (peptide array binding signal)", "setting": "KDM7A; KDM7A, GST-tagged", "result": 0.3413},
      {"measurement": "Array Heatmap value (peptide array binding signal)", "setting": "MLL5; MLL5, GST-tagged", "result": 0.5584},
      {"measurement": "Array Heatmap value (peptide array binding signal)", "setting": "MORC3 (CW); MORC3 (CW), GST-tagged", "result": 0.3765},
      {"measurement": "Array Heatmap value (peptide array binding signal)", "setting": "PHF13; PHF13, GST-tagged", "result": 0.6242},
      {"measurement": "Array Heatmap value (peptide array binding signal)", "setting": "PHF21A; PHF21A, GST-tagged", "result": 0.4915},
      {"measurement": "Array Heatmap value (peptide array binding signal)", "setting": "PHF23; PHF23, GST-tagged", "result": 0.5427},
      {"measurement": "Array Heatmap value (peptide array binding signal)", "setting": "PHF2; PHF2, GST-tagged", "result": 0.5963},
      {"measurement": "Array Heatmap value (peptide array binding signal)", "setting": "PHF8; PHF8, GST-tagged", "result": 0.3718},
      {"measurement": "Array Heatmap value (peptide array binding signal)", "setting": "PHRF1 (RP); PHRF1 (RP), GST-tagged", "result": 0.4962},
      {"measurement": "Array Heatmap value (peptide array binding signal)", "setting": "RAG2; RAG2, GST-tagged", "result": 0.2588},
      {"measurement": "Array Heatmap value (peptide array binding signal)", "setting": "SP140L; SP140L, GST-tagged", "result": 0.3853},
      {"measurement": "Array Heatmap value (peptide array binding signal)", "setting": "TAF3; TAF3, GST-tagged", "result": 0.2722},
      {"measurement": "Array Heatmap value (peptide array binding signal)", "setting": "TRIM66 (PB); TRIM66 (PB), GST-tagged", "result": 0.6142}
    ]}
  ]
}
